Common to all, as to assay type: functional, cell-based
One experiment has as its system Raji. Kind of experiment: Cytotoxicity against human Raji cells after 48 hrs by MTT assay. (In general: Tetrazolium dyes change colour on reduction, which living cells bring about.)
The subject of a further experiment is A549. Nature of the experiment: Cytotoxicity against human A549 cells after 48 hrs by MTT assay. Particulars: A549, 48 h.
A further experiment relates to SGC-7901. Nature of the experiment: Cytotoxicity against human SGC7901 cells after 48 hrs by MTT assay. The conditions noted are these: SGC-7901, 48 h.
The test system of the next experiment is HeLa. Kind of experiment: Cytotoxicity against human HeLa cells after 48 hrs by MTT assay.

These results are taken from ChEMBL document CHEMBL2331181, “Synthesis and in vitro cytotoxic activity evaluation of novel heterocycle bridged carbothioamide type isosteviol derivatives as antitumor agents” (Bioorg Med Chem Lett, 2013).

Each structure is given as a SMILES string.

Usually IC50 stands for the concentration at which inhibition is half-maximal. Low values mean higher potency, high ones lower potency. Regarding `CCOC(=O)[C@]1(C)CCC[C@@]2(C)[C@@H]3CC[C@@]4(C)C[C@]3(CC[C@@H]21)c1cn(C(=S)Nc2cccc(C)c2)nc14`, the IC50 is 14.2 µM in the experiment on Raji, 31.9 µM with A549, 15.3 µM in the experiment on SGC-7901 and over 50 µM in the experiment on HeLa.
`CCOC(=O)[C@]1(C)CCC[C@@]2(C)[C@@H]3CC[C@@]4(C)C[C@]3(CC[C@@H]21)c1cn(C(=S)Nc2ccc(C)cc2)nc14`: the IC50 is 12.5 µM with Raji, over 50 µM in the experiment on A549, 14.7 µM in the experiment with SGC-7901 and 40.5 µM in the experiment on HeLa.
With `CCOC(=O)[C@]1(C)CCC[C@@]2(C)[C@@H]3CC[C@@]4(C)C[C@]3(CC[C@@H]21)c1cn(C(=S)Nc2ccccc2OC)nc14`, the IC50 in the experiment with Raji was 10.1 µM; with A549, over 50 µM; in the experiment with SGC-7901 it was over 50 µM; with HeLa, over 50 µM.
Take `CCOC(=O)[C@]1(C)CCC[C@@]2(C)[C@@H]3CC[C@@]4(C)C[C@]3(CC[C@@H]21)c1cn(C(=S)Nc2cccc(OC)c2)nc14`: the IC50 is 15.1 µM with Raji, 23.3 µM with A549, 12.5 µM in the experiment on SGC-7901 and over 50 µM with HeLa.
For `CCOC(=O)[C@]1(C)CCC[C@@]2(C)[C@@H]3CC[C@@]4(C)C[C@]3(CC[C@@H]21)c1cn(C(=S)Nc2ccc(OC)cc2)nc14`, the IC50 in the experiment with Raji was found to be 6.51 µM; in the experiment with A549, 17.7 µM; with SGC-7901, 9.65 µM; with HeLa, 13.9 µM.
Consider `CCOC(=O)[C@]1(C)CCC[C@@]2(C)[C@@H]3CC[C@@]4(C)C[C@]3(CC[C@@H]21)c1cn(C(=S)Nc2ccccc2[N+](=O)[O-])nc14`, for which the IC50 with Raji worked out at 19.6 µM; in the experiment on A549, 38.3 µM; with SGC-7901 it was 16.4 µM; in the experiment with HeLa, 36.9 µM.
In the case of `CCOC(=O)[C@]1(C)CCC[C@@]2(C)[C@@H]3CC[C@@]4(C)C[C@]3(CC[C@@H]21)c1cn(C(=S)Nc2cccc([N+](=O)[O-])c2)nc14`, the IC50 was 16.9 µM in the experiment on Raji, over 50 µM in the experiment with A549, 16 µM in the experiment with SGC-7901 and over 50 µM with HeLa.
With `CCOC(=O)[C@]1(C)CCC[C@@]2(C)[C@@H]3CC[C@@]4(C)C[C@]3(CC[C@@H]21)c1cn(C(=S)Nc2ccc([N+](=O)[O-])cc2)nc14`, the IC50 with Raji is 17.9 µM; in the experiment with A549, 35.3 µM; with SGC-7901, 34.2 µM; in the experiment with HeLa it was 36.2 µM.
As to `CCOC(=O)[C@]1(C)CCC[C@@]2(C)[C@@H]3CC[C@@]4(C)C[C@]3(CC[C@@H]21)c1cn(C(=S)Nc2c(C)cccc2C)nc14`, the IC50 in the experiment on Raji was 12.1 µM; with A549 it was over 50 µM; with SGC-7901 it was 14.8 µM; in the experiment with HeLa, 49 µM.
As for `CCOC(=O)[C@]1(C)CCC[C@@]2(C)[C@@H]3CC[C@@]4(C)C[C@]3(CC[C@@H]21)c1cn(C(=S)Nc2ccc(Cl)cc2Cl)nc14`, the IC50 in the experiment with Raji was 24.5 µM; with A549 it was over 50 µM; in the experiment on SGC-7901 it was 20.1 µM; in the experiment on HeLa, over 50 µM.
`CCOC(=O)[C@]1(C)CCC[C@@]2(C)[C@@H]3CC[C@@]4(C)C[C@]3(CC[C@@H]21)[C@@H]1CON(C(=S)Nc2ccc(Br)cc2)[C@@H]14`: the IC50 in the experiment with Raji, with A549, in the experiment on SGC-7901 and in the experiment with HeLa was over 50 µM throughout.
In the case of `CCOC(=O)[C@]1(C)CCC[C@@]2(C)[C@@H]3CC[C@@]4(C)C[C@]3(CC[C@@H]21)[C@@H]1CON(C(=S)Nc2ccccc2C)[C@@H]14`, the IC50 in the experiment with Raji was 24 µM; with A549, over 50 µM; in the experiment with SGC-7901 it was 38.3 µM; in the experiment on HeLa, over 50 µM.
Regarding `CCOC(=O)[C@]1(C)CCC[C@@]2(C)[C@@H]3CC[C@@]4(C)C[C@]3(CC[C@@H]21)[C@@H]1CON(C(=S)Nc2cccc(C)c2)[C@@H]14`, the half-maximal inhibitory concentration (IC50) was 43.2 µM in the experiment with Raji, over 50 µM in the experiment on A549, 34.1 µM with SGC-7901 and over 50 µM with HeLa.
Turning to `CCOC(=O)[C@]1(C)CCC[C@@]2(C)[C@@H]3CC[C@@]4(C)C[C@]3(CC[C@@H]21)[C@@H]1CON(C(=S)Nc2ccc(C)cc2)[C@@H]14`, the IC50 is 27.6 µM in the experiment on Raji, 45.8 µM in the experiment on A549, 37.2 µM in the experiment with SGC-7901 and over 50 µM with HeLa.
`CCOC(=O)[C@]1(C)CCC[C@@]2(C)[C@@H]3CC[C@@]4(C)C[C@]3(CC[C@@H]21)[C@@H]1CON(C(=S)Nc2ccccc2OC)[C@@H]14`: the IC50 in the experiment on Raji, in the experiment on A549, in the experiment on SGC-7901 and in the experiment on HeLa was over 50 µM throughout.
`CCOC(=O)[C@]1(C)CCC[C@@]2(C)[C@@H]3CC[C@@]4(C)C[C@]3(CC[C@@H]21)[C@@H]1CON(C(=S)Nc2cccc(OC)c2)[C@@H]14`: the IC50 in the experiment with Raji, in the experiment on A549, in the experiment with SGC-7901 and with HeLa was over 50 µM each time.
As to `CCOC(=O)[C@]1(C)CCC[C@@]2(C)[C@@H]3CC[C@@]4(C)C[C@]3(CC[C@@H]21)[C@@H]1CON(C(=S)Nc2ccc(OC)cc2)[C@@H]14`, the IC50 is 37.4 µM with Raji, over 50 µM in the experiment with A549, over 50 µM in the experiment with SGC-7901 and over 50 µM in the experiment with HeLa.
With `CCOC(=O)[C@]1(C)CCC[C@@]2(C)[C@@H]3CC[C@@]4(C)C[C@]3(CC[C@@H]21)[C@@H]1CON(C(=S)Nc2ccccc2[N+](=O)[O-])[C@@H]14`, the IC50 in the experiment on Raji was 35.4 µM; in the experiment with A549, over 50 µM; in the experiment on SGC-7901, over 50 µM; in the experiment with HeLa, over 50 µM.
As to `CCOC(=O)[C@]1(C)CCC[C@@]2(C)[C@@H]3CC[C@@]4(C)C[C@]3(CC[C@@H]21)[C@@H]1CON(C(=S)Nc2cccc([N+](=O)[O-])c2)[C@@H]14`, the IC50 with Raji, with A549, in the experiment on SGC-7901 and in the experiment with HeLa was over 50 µM in each case.
As for `CCOC(=O)[C@]1(C)CCC[C@@]2(C)[C@@H]3CC[C@@]4(C)C[C@]3(CC[C@@H]21)[C@@H]1CON(C(=S)Nc2ccc([N+](=O)[O-])cc2)[C@@H]14`, the IC50 in the experiment with Raji is 23.5 µM; with A549, over 50 µM; in the experiment with SGC-7901, 49.8 µM; in the experiment on HeLa, over 50 µM.
As to `CCOC(=O)[C@]1(C)CCC[C@@]2(C)[C@@H]3CC[C@@]4(C)C[C@]3(CC[C@@H]21)[C@@H]1CON(C(=S)Nc2c(C)cccc2C)[C@@H]14`, the IC50 is 19.7 µM in the experiment with Raji, 41.6 µM with A549, 27.4 µM in the experiment with SGC-7901 and over 50 µM in the experiment with HeLa.
Consider `CCOC(=O)[C@]1(C)CCC[C@@]2(C)[C@@H]3CC[C@@]4(C)C[C@]3(CC[C@@H]21)[C@@H]1CON(C(=S)Nc2ccc(Cl)cc2Cl)[C@@H]14`, for which the 50% inhibitory concentration (IC50) was 21.9 µM in the experiment on Raji, 43.2 µM in the experiment on A549, 25.1 µM with SGC-7901 and over 50 µM in the experiment with HeLa.
For the compound `CCOC(=O)[C@]1(C)CCC[C@@]2(C)[C@@H]3CC[C@@]4(C)C[C@]3(CC[C@@H]21)c1cn(C(=S)Nc2ccccc2)nc14`, the IC50 in the experiment on Raji was 18.9 µM; with A549 it was 17.6 µM; with SGC-7901 it was 15.7 µM; in the experiment on HeLa it was 27.1 µM.
Consider `CCOC(=O)[C@]1(C)CCC[C@@]2(C)[C@@H]3CC[C@@]4(C)C[C@]3(CC[C@@H]21)c1cn(C(=S)Nc2ccccc2F)nc14`, for which the IC50 with Raji was found to be 11.1 µM; with A549, 18.8 µM; in the experiment on SGC-7901, 20.7 µM; with HeLa it was 47.5 µM.
On to `CCOC(=O)[C@]1(C)CCC[C@@]2(C)[C@@H]3CC[C@@]4(C)C[C@]3(CC[C@@H]21)c1cn(C(=S)Nc2cccc(F)c2)nc14`, for which the IC50 in the experiment on Raji was 23.7 µM; in the experiment on A549, 33.8 µM; in the experiment with SGC-7901, 19.5 µM; with HeLa it was over 50 µM.
Turning to `CCOC(=O)[C@]1(C)CCC[C@@]2(C)[C@@H]3CC[C@@]4(C)C[C@]3(CC[C@@H]21)c1cn(C(=S)Nc2ccc(F)cc2)nc14`, the IC50 is 17.7 µM in the experiment with Raji, 33.5 µM in the experiment with A549, 18.4 µM in the experiment on SGC-7901 and 13.3 µM in the experiment on HeLa.
For `CCOC(=O)[C@]1(C)CCC[C@@]2(C)[C@@H]3CC[C@@]4(C)C[C@]3(CC[C@@H]21)c1cn(C(=S)Nc2ccccc2Cl)nc14`, in that order: 21.1 µM, 26.6 µM, 26.2 µM and over 50 µM.
For `CCOC(=O)[C@]1(C)CCC[C@@]2(C)[C@@H]3CC[C@@]4(C)C[C@]3(CC[C@@H]21)c1cn(C(=S)Nc2cccc(Cl)c2)nc14`, the IC50 was 16 µM with Raji, 39.1 µM in the experiment with A549, 16.9 µM in the experiment on SGC-7901 and over 50 µM in the experiment on HeLa.
Take `CCOC(=O)[C@]1(C)CCC[C@@]2(C)[C@@H]3CC[C@@]4(C)C[C@]3(CC[C@@H]21)c1cn(C(=S)Nc2ccc(Cl)cc2)nc14`: the IC50 was 13 µM in the experiment with Raji, 20 µM in the experiment with A549, 21.7 µM in the experiment with SGC-7901 and 39 µM in the experiment on HeLa.
As to `CCOC(=O)[C@]1(C)CCC[C@@]2(C)[C@@H]3CC[C@@]4(C)C[C@]3(CC[C@@H]21)c1cn(C(=S)Nc2ccccc2Br)nc14`, the IC50 in the experiment on Raji stood at 19.6 µM; in the experiment with A549, 38.1 µM; with SGC-7901, 17.2 µM; in the experiment with HeLa, 43.4 µM.
Take `CCOC(=O)[C@]1(C)CCC[C@@]2(C)[C@@H]3CC[C@@]4(C)C[C@]3(CC[C@@H]21)c1cn(C(=S)Nc2cccc(Br)c2)nc14`: the IC50 in the experiment on Raji is 15.8 µM; in the experiment on A549, 24.8 µM; in the experiment with SGC-7901, 19.6 µM; in the experiment on HeLa, over 50 µM.
Regarding `CCOC(=O)[C@]1(C)CCC[C@@]2(C)[C@@H]3CC[C@@]4(C)C[C@]3(CC[C@@H]21)c1cn(C(=S)Nc2ccc(Br)cc2)nc14`, the IC50 with Raji is 13.9 µM; in the experiment on A549 it was 24.5 µM; in the experiment with SGC-7901, 7.06 µM; in the experiment with HeLa, over 50 µM.
In the case of `CCOC(=O)[C@]1(C)CCC[C@@]2(C)[C@@H]3CC[C@@]4(C)C[C@]3(CC[C@@H]21)c1cn(C(=S)Nc2ccccc2C)nc14`, the IC50 in the experiment on Raji was 15.2 µM; in the experiment on A549, 32.1 µM; in the experiment on SGC-7901 it was 38.1 µM; in the experiment with HeLa it was over 50 µM.
